From patent US10758534B2 (Vertex Pharmaceuticals Incorporated, priority 2014, dated 2020) come the findings set out here.

This test deals with T1, F508del (Homo sapiens, UniProt P13569, DEL508-508).
T1 construct: expressed in transfected cells
T1 sequence (P13569 with tags, fused parts or gaps DEL508-508): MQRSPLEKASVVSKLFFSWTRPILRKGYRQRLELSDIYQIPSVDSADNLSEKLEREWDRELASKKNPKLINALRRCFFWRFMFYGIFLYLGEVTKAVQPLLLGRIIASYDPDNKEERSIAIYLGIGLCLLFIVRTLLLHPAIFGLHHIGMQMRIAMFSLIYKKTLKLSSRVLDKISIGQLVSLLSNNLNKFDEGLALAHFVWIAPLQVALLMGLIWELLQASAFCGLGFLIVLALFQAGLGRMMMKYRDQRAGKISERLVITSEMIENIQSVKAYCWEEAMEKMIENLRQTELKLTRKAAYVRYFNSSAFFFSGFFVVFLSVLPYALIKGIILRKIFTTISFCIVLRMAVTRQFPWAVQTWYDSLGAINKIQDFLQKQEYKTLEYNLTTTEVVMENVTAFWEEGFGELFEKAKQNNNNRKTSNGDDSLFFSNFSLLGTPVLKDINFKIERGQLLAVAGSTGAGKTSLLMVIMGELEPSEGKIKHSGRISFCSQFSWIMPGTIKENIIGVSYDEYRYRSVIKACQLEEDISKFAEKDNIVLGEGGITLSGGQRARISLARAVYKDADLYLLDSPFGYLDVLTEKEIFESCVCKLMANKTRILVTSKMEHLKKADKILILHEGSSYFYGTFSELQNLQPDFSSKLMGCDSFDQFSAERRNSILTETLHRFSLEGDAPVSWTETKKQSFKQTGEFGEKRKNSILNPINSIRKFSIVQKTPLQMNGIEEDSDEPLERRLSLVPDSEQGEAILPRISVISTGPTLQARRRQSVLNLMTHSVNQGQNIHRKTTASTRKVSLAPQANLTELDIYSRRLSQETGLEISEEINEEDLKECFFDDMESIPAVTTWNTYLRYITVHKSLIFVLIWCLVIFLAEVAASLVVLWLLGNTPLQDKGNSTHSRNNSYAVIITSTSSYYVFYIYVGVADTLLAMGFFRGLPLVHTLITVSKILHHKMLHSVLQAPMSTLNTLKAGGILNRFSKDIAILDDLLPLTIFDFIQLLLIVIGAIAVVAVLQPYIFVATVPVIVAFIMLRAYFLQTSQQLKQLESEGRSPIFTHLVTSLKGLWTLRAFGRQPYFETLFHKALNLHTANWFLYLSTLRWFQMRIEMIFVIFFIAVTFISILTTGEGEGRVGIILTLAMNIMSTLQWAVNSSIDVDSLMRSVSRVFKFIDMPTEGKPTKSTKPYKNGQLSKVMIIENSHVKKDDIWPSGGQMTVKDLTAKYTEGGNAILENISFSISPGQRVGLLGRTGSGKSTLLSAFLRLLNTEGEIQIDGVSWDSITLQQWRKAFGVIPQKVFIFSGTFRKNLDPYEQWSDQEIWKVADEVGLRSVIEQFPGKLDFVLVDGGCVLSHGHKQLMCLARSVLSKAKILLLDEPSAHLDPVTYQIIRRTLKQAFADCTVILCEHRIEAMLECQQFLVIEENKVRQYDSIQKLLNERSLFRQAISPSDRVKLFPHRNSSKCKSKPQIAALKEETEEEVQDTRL
Briefly: Protocol 1: membrane potential optical assay (FLIPR III, voltage sensing dye), identification of potentiator compounds. The conditions noted are these: Table 3, compounds of Table 1. The format is cell-based. The method, boiled down: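 Mouse NIH 3T3 fibroblasts stably expressing F508del, temperature-corrected at 27 °C for 24 h, pretreated with compound, then loaded with voltage-sensing redistribution dye. Forskolin was added in a single step with a chloride gradient (chloride-free gluconate bath; Bath Solution #1 HEPES pH 7.4). Membrane-potential fluorescence read on FLIPR III.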
On to `CC(C)Oc1ccc(-c2ccc(C(=O)NS(=O)(=O)c3ccn[nH]3)c(N3[C@H](C)CC[C@@H]3C)n2)cn1` [Compound 1074, 2-[(2S,5R)-2,5-dimethylpyrrolidin-1-yl]-6-(6-isopropoxy-3-pyridyl)-N-(1H-pyrazol-5-ylsulfonyl)pyridine-3-carboxamide], for which the EC30 entry is “++ (“++” means between 3 uM and 10 uM)”.
Then `CC1CN(c2nc(OC(C)C(C)C)c(F)cc2C(=O)NS(=O)(=O)c2cccc(N)n2)C(C)(C)C1` (stereo not drawn) [Compound 1810, N-[(6-amino-2-pyridyl)sulfonyl]-6-(1,2-dimethylpropoxy)-5-fluoro-2-(2,2,4-trimethylpyrrolidin-1-yl)pyridine-3-carboxamide], with “+++ (“+++” means <3 uM)”.
For `CC(C)COc1cc(F)cc(-c2ccc(C(=O)NS(=O)(=O)c3cccnc3N)c(N3C[C@@H](C)CC3(C)C)n2)c1` [Compound 1593, N-[(2-amino-3-pyridyl)sulfonyl]-6-(3-fluoro-5-isobutoxy-phenyl)-2-[(4S)-2,2,4-trimethylpyrrolidin-1-yl]pyridine-3-carboxamide], the EC30 result is recorded as “+++ (“+++” means <3 uM)”.
Then `Cc1cc(OCC(C)(C)C)ncc1-c1ccc(C(=O)NS(=O)(=O)c2cccc(N)n2)c(N2CC(C)CC2(C)C)n1` (stereo not drawn) [Compound 1160, N-[(6-amino-2-pyridyl)sulfonyl]-6-[6-(2,2-dimethylpropoxy)-4-methyl-3-pyridyl]-2-(2,2,4-trimethylpyrrolidin-1-yl)pyridine-3-carboxamide], with “+++ (“+++” means <3 uM)”; and `CC(C)COc1cc(F)cc(-c2ccc(C(=O)NS(=O)(=O)c3cccc(N)n3)c(O[C@@H]3CCOC3)n2)c1` [Compound 1592, N-[(6-amino-2-pyridyl)sulfonyl]-6-(3-fluoro-5-isobutoxy-phenyl)-2-[(3R)-tetrahydrofuran-3-yl]oxy-pyridine-3-carboxamide], with “+++ (“+++” means <3 uM)”; and `CC1CN(c2ncc(-c3ccccc3C(F)(F)F)cc2C(=O)NS(=O)(=O)c2cccc(N)n2)C(C)(C)C1` (stereo not drawn) [Compound 1921, N-[(6-amino-2-pyridyl)sulfonyl]-5-[2-(trifluoromethyl)phenyl]-2-(2,2,4-trimethylpyrrolidin-1-yl)pyridine-3-carboxamide], with “+++ (“+++” means <3 uM)”.
As to `CCOc1cccc2c1CN(Cc1c(C)cc(C)cc1C)C2(C)C(=O)NS(=O)(=O)c1cccc(N)n1` (stereo not drawn) [Compound 1346, N-[(6-amino-2-pyridyl)sulfonyl]-4-ethoxy-1-methyl-2-[(2,4,6-trimethylphenyl)methyl]isoindoline-1-carboxamide], the EC30 entry was “+++ (“+++” means <3 uM)”.
`COc1ccc(-c2ccc(C(=O)NS(=O)(=O)c3cccc(N)n3)c(Oc3c(C)cc(C)cc3C)n2)cc1O` [Compound 1251, N-[(6-amino-2-pyridyl)sulfonyl]-6-(3-hydroxy-4-methoxy-phenyl)-2-(2,4,6-trimethylphenoxy)pyridine-3-carboxamide]: the EC30 entry was “++ (“++” means between 3 uM and 10 uM)”.
Then `CCOc1nn(-c2ccc(C(=O)NS(=O)(=O)c3ccc[nH]c3=O)c(N3C[C@@H](C)CC3(C)C)n2)cc1C` [Compound 1856, 6-(3-ethoxy-4-methyl-pyrazol-1-yl)-N-[(2-oxo-1H-pyridin-3-yl)sulfonyl]-2-[(4S)-2,2,4-trimethylpyrrolidin-1-yl]pyridine-3-carboxamide], with “+++ (“+++” means <3 uM)”; and `CC(C)COc1cc(F)cc(-c2ccc(C(=O)NS(=O)(=O)c3cccc(N)n3)c(N3CCC4CC43)n2)c1` (stereo not drawn) [Compound 906, N-[(6-amino-2-pyridyl)sulfonyl]-2-(4-azabicyclo[3.1.0]hexan-4-yl)-6-(3-fluoro-5-isobutoxy-phenyl)pyridine-3-carboxamide], with “+++ (“+++” means <3 uM)”; and `COC1CCCN(S(=O)(=O)NC(=O)c2ccc(-c3cc(F)cc(OCC(C)C)c3)nc2N2C[C@@H](C)CC2(C)C)C1` (stereo partly drawn) [Compound 1545, 6-(3-fluoro-5-isobutoxy-phenyl)-N-[(3-methoxy-1-piperidyl)sulfonyl]-2-[(4S)-2,2,4-trimethylpyrrolidin-1-yl]pyridine-3-carboxamide], with “+++ (“+++” means <3 uM)”.
The result for `COc1ccc(-c2ccc(C(=O)NS(=O)(=O)c3cccnc3N)c(N3C[C@@H](C)CC3(C)C)n2)c(CO)c1` [Compound 1707, N-[(2-amino-3-pyridyl)sulfonyl]-6-[2-(hydroxymethyl)-4-methoxy-phenyl]-2-[(4S)-2,2,4-trimethylpyrrolidin-1-yl]pyridine-3-carboxamide] reads “++ (“++” means between 3 uM and 10 uM)”; that for `Cc1ccc(OCC(C)(C)C)nc1-c1ccc(C(=O)NS(=O)(=O)c2cccc(N)n2)c(N2CC(C)CC2(C)C)n1` (stereo not drawn) [Compound 1645, N-[(6-amino-2-pyridyl)sulfonyl]-6-[6-(2,2-dimethylpropoxy)-3-methyl-2-pyridyl]-2-(2,2,4-trimethylpyrrolidin-1-yl)pyridine-3-carboxamide], “+++ (“+++” means <3 uM)”; that for `COc1ccc(-c2cnc(N3CC(C)CC3(C)C)c(C(=O)NS(=O)(=O)c3cccc(N)n3)c2)cc1` (stereo not drawn) [Compound 1792, N-[(6-amino-2-pyridyl)sulfonyl]-5-(4-methoxyphenyl)-2-(2,2,4-trimethylpyrrolidin-1-yl)pyridine-3-carboxamide], “+++ (“+++” means <3 uM)”.
The result for `CCOc1cccc2c1CN(Cc1c(C)cc(C)cc1C)C2(C)C(=O)NS(=O)(=O)c1cccc(NC(=O)C(F)(F)F)n1` (stereo not drawn) [Compound 1616, 4-ethoxy-1-methyl-N-[[6-[(2,2,2-trifluoroacetyl)amino]-2-pyridyl]sulfonyl]-2-[(2,4,6-trimethylphenyl)methyl]isoindoline-1-carboxamide] reads “+++ (“+++” means <3 uM)”; that for `CC1(C)CN(c2nccc(C(F)(F)F)c2C(=O)NS(=O)(=O)c2cccc(N)n2)C(C)(C)C1` [Compound 1658, N-[(6-amino-2-pyridyl)sulfonyl]-2-(2,2,4,4-tetramethylpyrrolidin-1-yl)-4-(trifluoromethyl)pyridine-3-carboxamide], “++ (“++” means between 3 uM and 10 uM)”; that for `CC1CN(c2ncccc2C(=O)NS(=O)(=O)c2cccc(Nc3ccc(C(C)(C)C)cc3)n2)C(C)(C)C1` (stereo not drawn) [Compound 1756, N—[[6-(4-tert-butylanilino)-2-pyridyl]sulfonyl]-2-(2,2,4-trimethylpyrrolidin-1-yl)pyridine-3-carboxamide], “+++ (“+++” means <3 uM)”.
As for `COc1ccc(C)cc1-c1ccc(C(=O)NS(=O)(=O)c2cccc(N)n2)c(Oc2c(C)cc(C)cc2C)n1` [Compound 1320, N-[(6-amino-2-pyridyl)sulfonyl]-6-(2-methoxy-5-methyl-phenyl)-2-(2,4,6-trimethylphenoxy)pyridine-3-carboxamide], the EC30 result is recorded as “+++ (“+++” means <3 uM)”.
The result for `COc1ccc(-c2ccc(C(=O)NS(=O)(=O)c3cccnc3N)c(N3C[C@@H](C)CC3(C)C)n2)c(F)c1` [Compound 1818, N-[(2-amino-3-pyridyl)sulfonyl]-6-(2-fluoro-4-methoxy-phenyl)-2-[(4S)-2,2,4-trimethylpyrrolidin-1-yl]pyridine-3-carboxamide] reads “+++ (“+++” means <3 uM)”.
On to `CC1CN(c2nc(C(C)(C)C)c(Br)cc2C(=O)NS(=O)(=O)c2cccc(N)n2)C(C)(C)C1` (stereo not drawn) [Compound 1628, N-[(6-amino-2-pyridyl)sulfonyl]-5-bromo-6-tert-butyl-2-(2,2,4-trimethylpyrrolidin-1-yl)pyridine-3-carboxamide], for which the EC30 result is on record as “+++ (“+++” means <3 uM)”.
For the molecule `COc1ccc(C(=O)NS(=O)(=O)c2cccc(N)n2)c(Oc2c(C)cc(C)cc2C)n1` [Compound 806, N-[(6-amino-2-pyridyl)sulfonyl]-6-methoxy-2-(2,4,6-trimethylphenoxy)pyridine-3-carboxamide], the EC30 result is “++ (“++” means between 3 uM and 10 uM)”.
Then `Cc1cc(-c2ccc(C(=O)NS(=O)(=O)c3cccnc3N)c(N3C[C@@H](C)CC3(C)C)n2)cc(C)c1O` [Compound 1923, N-[(2-amino-3-pyridyl)sulfonyl]-6-(4-hydroxy-3,5-dimethyl-phenyl)-2-[(4S)-2,2,4-trimethylpyrrolidin-1-yl]pyridine-3-carboxamide], with “++ (“++” means between 3 uM and 10 uM)”.
Then `CC(C)Oc1ccc(-c2ccc(C(=O)NS(=O)(=O)c3cccc(N)n3)c(N3CCC(C)(C)C3C)n2)cn1` (stereo not drawn) [Compound 1327, N-[(6-amino-2-pyridyl)sulfonyl]-6-(6-isopropoxy-3-pyridyl)-2-(2,3,3-trimethylpyrrolidin-1-yl)pyridine-3-carboxamide], with “+++ (“+++” means <3 uM)”.
The result for `Cc1ccccc1Nc1cccc(S(=O)(=O)NC(=O)c2cccnc2N2CC(C)CC2(C)C)n1` (stereo not drawn) [Compound 1898, N—[[6-(2-methylanilino)-2-pyridyl]sulfonyl]-2-(2,2,4-trimethylpyrrolidin-1-yl)pyridine-3-carboxamide] reads “++ (“++” means between 3 uM and 10 uM)”; that for `CCOc1cc(-c2ccc(C(=O)NS(=O)(=O)c3ccc[nH]c3=O)c(Oc3c(C)cc(C)cc3C)n2)ccc1F` [Compound 917, 6-(3-ethoxy-4-fluoro-phenyl)-N-[(2-oxo-1H-pyridin-3-yl)sulfonyl]-2-(2,4,6-trimethylphenoxy)pyridine-3-carboxamide], “++ (“++” means between 3 uM and 10 uM)”.
Take `C[C@@H]1CN(c2nc(C3=CCN(C(=O)OC(C)(C)C)CC3)ccc2C(=O)NS(=O)(=O)c2cccc(N)n2)C(C)(C)C1` [Compound 1624, tert-butyl 4-[5-[(6-amino-2-pyridyl)sulfonylcarbamoyl]-6-[(4S)-2,2,4-trimethylpyrrolidin-1-yl]-2-pyridyl]-3,6-dihydro-2H-pyridine-1-carboxylate]: the EC30 result is “+++ (“+++” means <3 uM)”.
The result for `CC(C)COc1cc(F)cc(-c2ccc(C(=O)NS(=O)(=O)c3cccc(O)c3)c(N3C[C@@H](C)CC3(C)C)n2)c1` [Compound 1885, 6-(3-fluoro-5-isobutoxy-phenyl)-N-(3-hydroxyphenyl)sulfonyl-2-[(4S)-2,2,4-trimethylpyrrolidin-1-yl]pyridine-3-carboxamide] reads “+++ (“+++” means <3 uM)”.
